Where two headings read alike, the source gives them in different places. *1 amine or outer side, *2 acyl side, *3 side chain or, on linkers, in order; H or OH if unused. Where a SMILES comes first, the peptide text is derived from it. The star is where a group is joined. X2 = CC1=C(CCCN*)C2=C(C)C3(CC3)[C@@](C)(O)C(=O)C2=C1; Morpholide = C1CN(*)CCO1; CO = O=C([*:1])[*:2]
Assays:
[1] = test system: MV522 Target Cell Line (lung-derived adenocarcinoma); test: cells; details: MV522, 48 h, read-out: Mean IC50 value
[2] = test system: MV522 Target Cell Line (lung-derived adenocarcinoma); test: cells; details: MV522, 2 h, read-out: Mean IC50 value
[3] = test system: 8392B Nontarget Cell Line (hematopoietic); test: cells; details: 2 h, read-out: Mean IC50 value
[4] = in vitro; details: human
Source text: (§1) MCF7 over express estrogen alpha-receptors.
(§2) MCF7 cells over express estrogen alpha-receptors.

[5] = test system: MCF7 (ER positive); format: cell-based; details: MCF7 (ER positive) versus HT29 (ER negative), result in words
Source text: as §1, §2

[6] = test system: 8392B Nontarget Cell Line (hematopoietic); test: cells; details: 48 h, read-out: Mean IC50 value
[7] = test system: 8392B Nontarget Cell Line (hematopoietic); details: read-out: Mean IC50 value, 2 hr exposure, ± SD, N = 3 unless otherwise indicated
[8] = test system: 8392B Nontarget Cell Line (hematopoietic); details: read-out: Mean IC50 value, 48 hr exposure, ± SD, N = 3 unless otherwise indicated
[9] = test system: MV522 Target Cell Line (lung-derived adenocarcinoma)

| SMILES | IC50 [2] [µM] | IC50 [3] [µM] | IC50 [4] [µM] | preferential killing of ER positive cells [5] | IC50 [7] [µM] | IC50 [8] [µM] | also measured |
| --- | --- | --- | --- | --- | --- | --- | --- |
| CC1=C(CCC(=O)Oc2ccc3c(c2)CCC2C3CC[C@]3(C)C(O)CCC23)C2=C(C)C3(CC3)[C@@](C)(O)C(=O)C2=C1 (stereo partly drawn) [Analog 108] | 12.3 ± 2.3 | > 55 | > 55 | – | – | – | IC50 [1]: 0.52 ± 0.05 µM |
| CC1=C(CCC(=O)Oc2ccc3c(c2)CCC2C3CC[C@]3(C)C(=O)CCC23)C2=C(C)C3(CC3)[C@@](C)(O)C(=O)C2=C1 (stereo partly drawn) [Analog 110] | > 55 | > 55 | > 19 | preferentially killed | – | – | IC50 [6]: 25.3 ± 2.1 µM |
| CC1=C(CCCNC(=O)[C@H](CC(C)C)NC(=O)[C@H](CCC(N)=O)NC(=O)[C@H](CC(C)C)NC(=O)[C@H](CCCCN)NC(=O)[C@H](CO)NC(=O)[C@H](CO)NC(=O)[C@H](Cc2c[nH]cn2)NC(=O)N2CCOCC2)C2=C(C)C3(CC3)[C@@](C)(O)C(=O)C2=C1 [Analog 221] ({Morpholide-CO}-HSSKLQL-X2) | – | – | – | – | > 21 | > 21 | IC50 ([9]; read-out: Mean IC50 value, MV522 Target Cell Line, 2 hr exposure, ± SD, N = 3 unless otherwise indicated): > 21 µM |
| CC1=CC2=C(C)C3(CC3)C(C)(O)C(=NO)C2=C1 (stereo not drawn) [Analog 224] | – | – | – | – | > 200 | > 130 | toxicity as monotherapeutic agent ([9]; MV522 target and 8392B nontarget cell line, result in words): minimal toxicity |
| CC1=C2C(O)C(C)(C)C3CC23C(=O)C(C)(O)C12CC2 (stereo not drawn) [Analog 252] | – | – | – | – | > 380 | > 380 | – |
| CC1=C2C(=CC(C)(C)[C@@H]2O)C(=O)[C@](C)(O)C12CC2 [Illudin M, reference compound] | – | – | – | killed both ER negative and ER positive cells to the same extent | – | – | – |
